As usually defined, the IC50 is the midpoint of a concentration-inhibition curve. One may read the EC50 as the concentration needed to bring the measured effect to its halfway point. A low value points to a more potent agent.

The results in this text go back to publication PMC4868058, “A critical role for the Drosophila dopamine D1-like receptor Dop1R2 at the onset of metamorphosis” (BMC Developmental Biology, 2016).

Each structure is given as a SMILES string. Where a name gives a salt, the structure may show the parent alone.

Experiment [1] deals with T1, Dop1R2 (Drosophila melanogaster, UniProt Q24563).
T1 construct: receptor cDNA in pcDNA1.1, transiently expressed in HEK293 with CRE-luciferase reporter
T1 sequence (Q24563 1-539): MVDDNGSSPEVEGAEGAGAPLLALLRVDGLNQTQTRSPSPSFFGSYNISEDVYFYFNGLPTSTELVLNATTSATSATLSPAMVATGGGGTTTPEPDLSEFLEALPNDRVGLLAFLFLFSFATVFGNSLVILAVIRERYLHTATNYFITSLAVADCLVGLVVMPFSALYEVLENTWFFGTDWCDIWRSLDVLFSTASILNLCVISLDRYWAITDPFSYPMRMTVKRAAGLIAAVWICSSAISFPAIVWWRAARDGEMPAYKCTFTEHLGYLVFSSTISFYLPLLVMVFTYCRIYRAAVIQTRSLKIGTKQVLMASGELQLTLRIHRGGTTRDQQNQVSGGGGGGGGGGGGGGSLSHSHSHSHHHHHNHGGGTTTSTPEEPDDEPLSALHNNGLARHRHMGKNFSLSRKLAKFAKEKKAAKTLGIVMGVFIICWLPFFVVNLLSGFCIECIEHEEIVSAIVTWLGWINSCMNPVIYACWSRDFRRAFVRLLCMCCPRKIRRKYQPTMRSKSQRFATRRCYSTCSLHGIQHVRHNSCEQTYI
Nature of the experiment: CRE-luciferase reporter assay in transfected HEK293 cells. The experiment is classed as cell-based. A general note: A reporter such as luciferase makes a cellular process visible.

Experiment [2] addresses T1, Dop1R2. The experiment is described as above. The experiment is classed as cell-based. The source holds these as a separate data set.

Consider `OCCN1CCN(CCC=C2c3ccccc3Sc3ccc(C(F)(F)F)cc32)CC1` [flupenthixol dihydrochloride], for which inhibition on Dop1R2 [1] was half-maximal at 260 nM (IC50).

On to `NCCc1ccc(O)c(O)c1` [dopamine hydrochloride], for which the EC50 at Dop1R2 [2] stood at 270 nM.
